Measured values: patent US20250314661A1, “CHEMIGENETIC TOOLS AND METHODS OF CONTROLLING AND ASSESSING PROTEIN PHASE SEPARATION” (THE REGENTS OF THE UNIVERSITY OF CALIFORNIA, priority 2022, published 2025)
Blank lines part the entries; values can stand above or below the molecule they belong to.

Columns and labels:
[1] = system: Ctgf; experiment: RT-qPCR of YAP target gene Ctgf mRNA; type: cell-based; conditions: cells transfected with CEL-EGFP-YAP without the ZIF construct
Experimental: FIG. 6A-D show representative images illustrating that the SparkDrop-Y AP condensates produce nascent RNAs and upregulate a direct target gene of Y AP. […] The cells were short labeled with EU for 1 hour. Arrows point to the induced YAP condensates and the colocalized nascent RNA droplets. Arrowhead points to nucleoli. The nucleus marked by asterisk was not transfected with SparkDrop-YAP. […] Data are shown as meant SD (n=3).
Lastly, whether the SparkDrop-Y AP condensates upregulate mRNA levels of a YAP target gene Ctgf were determined using RT-qPCR. […] As a control, cells were incubated with DMSO. […] Next, a positive control was conducted by incubating cells with sorbitol, which is known to induce osmotic stress and drive YAP condensate formation. […] Lastly, cells were transfected with CEL-EGFP-Y AP (without the ZIF construct), and incubated with lenalidomide or DMSO.

[2] = system: other cells; conditions: cells other than multiple myeloma; Siu et al. (2017); cited from earlier work
[3] = system: ERK; experiment: ERK activity reporter ERK-KTR translocation after lenalidomide-induced SOScat translocation
Description: The relocated SOScat then activates Ras, which leads to ERK activation via the MAPK pathway.
The presence of SOS in the PM can activate Ras and promote ERK activity via the MAPK pathway (FIG. 2C, left). For targeting SOS to the PM, ZIF was first fused to the CAAX motif tagged with a red fluorescent protein (RFP). Next, CEL was fused to the catalytic domain of SOS (referred to as SOScat), which was tagged with a near infrared fluorescent protein IFP2 that helps visualizing SOScat translocation (FIG. 2C, left). […] To determine whether SOScat translocation activates ERK, a GFP translocation-based ERK activity reporter called ERK-KTR was used, which translocates from the nucleus to the cytoplasm upon activation of endogenous ERK (Regot et al. (2014) Cell 157:1724-1734).

[4] = target: MYCN fused to FRB and mEGFP (UniProt P04198); experiment: cell-based or functional assay
MYCN fused to FRB and mEGFP, sequence (P04198 other isoform, or with tags, fused parts or gaps): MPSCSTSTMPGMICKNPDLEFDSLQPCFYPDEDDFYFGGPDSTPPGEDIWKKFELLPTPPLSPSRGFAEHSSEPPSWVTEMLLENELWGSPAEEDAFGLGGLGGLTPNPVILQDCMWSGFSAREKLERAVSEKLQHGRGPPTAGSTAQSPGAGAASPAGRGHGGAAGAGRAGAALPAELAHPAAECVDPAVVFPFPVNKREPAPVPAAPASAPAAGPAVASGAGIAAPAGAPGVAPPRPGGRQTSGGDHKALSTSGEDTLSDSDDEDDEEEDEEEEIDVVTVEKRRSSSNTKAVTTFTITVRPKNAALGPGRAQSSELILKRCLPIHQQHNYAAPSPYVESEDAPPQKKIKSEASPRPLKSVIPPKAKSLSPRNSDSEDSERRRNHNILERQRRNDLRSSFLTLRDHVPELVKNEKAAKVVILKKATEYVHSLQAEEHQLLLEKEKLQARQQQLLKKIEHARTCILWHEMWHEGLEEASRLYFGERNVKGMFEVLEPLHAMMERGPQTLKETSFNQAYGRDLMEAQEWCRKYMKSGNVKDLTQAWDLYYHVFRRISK

[5] = target: T1, DDB1 (UniProt Q16531 1-1140); experiment: FLAG pull-down and Western blot against DDB1, HEK293 cells, with or without exogenous DDB1
T1 construct: Tested both as endogenous protein of HEK293 cells and with exogenous over-expression; also called endogenous DDB1; exogenous DDB1
T1 sequence (Q16531 whole entry): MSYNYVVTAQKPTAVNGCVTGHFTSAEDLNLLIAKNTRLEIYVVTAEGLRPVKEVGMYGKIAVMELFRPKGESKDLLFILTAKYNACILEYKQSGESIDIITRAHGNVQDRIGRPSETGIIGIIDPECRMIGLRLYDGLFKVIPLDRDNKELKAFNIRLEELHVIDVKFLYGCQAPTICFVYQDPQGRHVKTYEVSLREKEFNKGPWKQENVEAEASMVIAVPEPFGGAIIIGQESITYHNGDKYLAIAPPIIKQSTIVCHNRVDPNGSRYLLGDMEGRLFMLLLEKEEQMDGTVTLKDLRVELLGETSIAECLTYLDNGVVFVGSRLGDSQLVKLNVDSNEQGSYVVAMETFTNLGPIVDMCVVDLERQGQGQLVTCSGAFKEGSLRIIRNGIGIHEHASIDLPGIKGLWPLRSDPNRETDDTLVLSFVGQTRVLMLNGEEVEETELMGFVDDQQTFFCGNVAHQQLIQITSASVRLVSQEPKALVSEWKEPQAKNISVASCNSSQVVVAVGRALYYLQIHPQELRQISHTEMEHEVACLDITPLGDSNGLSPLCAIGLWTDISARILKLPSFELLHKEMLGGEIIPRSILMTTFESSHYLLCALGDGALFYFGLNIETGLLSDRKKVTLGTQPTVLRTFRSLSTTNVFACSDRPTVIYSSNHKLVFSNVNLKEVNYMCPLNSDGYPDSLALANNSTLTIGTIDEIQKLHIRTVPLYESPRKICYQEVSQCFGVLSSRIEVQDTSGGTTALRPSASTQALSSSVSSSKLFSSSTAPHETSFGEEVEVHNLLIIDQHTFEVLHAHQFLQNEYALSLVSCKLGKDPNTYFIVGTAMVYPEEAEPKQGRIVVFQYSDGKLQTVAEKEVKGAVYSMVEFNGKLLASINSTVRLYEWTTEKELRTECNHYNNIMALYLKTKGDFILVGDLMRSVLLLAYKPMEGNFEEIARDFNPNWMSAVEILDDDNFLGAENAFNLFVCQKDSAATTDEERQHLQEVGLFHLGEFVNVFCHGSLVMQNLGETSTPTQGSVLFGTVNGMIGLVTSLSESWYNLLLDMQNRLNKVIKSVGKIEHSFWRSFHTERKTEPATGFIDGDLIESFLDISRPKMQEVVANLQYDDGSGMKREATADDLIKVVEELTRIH

Molecule: Nc1cccc2c1CN(C1CCC(=O)NC1=O)C2=O (stereo not shown) [lenalidomide]
Ctgf mRNA, control without ZIF construct [1]: not upregulated
toxicity in other cells [2]: no or little toxicity
ERK-KTR translocation ([3]; cells expressing CEL-IFP2-SOScat and ZIF-RFP-CAAX): translocated from the nucleus to the cytoplasm
ERK-KTR translocation, control without ZIF ([3]; cells expressing CEL-IFP2-SOScat without ZIF): did not induce ERK-KTR translocation

Molecule: O=C1CCC(N2C(=O)c3ccccc3C2=O)C(=O)N1 (stereo not shown) [thalidomide]
toxicity in other cells [2]: no or little toxicity

Further lines, results first:

dissolution of MYCN condensates after addition of rapamycin [4]: 10 min
Molecule: SUMO-mCherry-FKBP (from UniProt P62942 2-108)

binding result [5]: no binding
B1: FLAG-tagged CEL (109 amino acid CRBN C-terminal domain) (other)
chain: SLCCKQCQETEITTKNEIFSLSLCGPMAAYVNPHGYVHETLTVYKACNLNLIGRPSTEHSWFPGYAWTVAQCKICASHIGWKFTATKKDMSPQKFWGLTRSALLPTIPD
notes: Expressed in HEK293 cells; also called CRBN CTD; not shown: FLAG tag
